Assays:
duck salad = assay: Test B flood test duck salad; type: in vivo, Heteranthera limosa
Outline: (§1)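 Each value is a visual injury score relative to controls, with 10 meaning complete control and 0 no effect. Evaluation took place twelve to sixteen days after the 2-leaf-stage plants were treated and kept in the greenhouse.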

rice = assay: Test B flood test rice; type: in vivo, Oryza sativa
Outline: as §1

velvetleaf = assay: Test B pre/postemergence velvetleaf; type: in vivo, Abutilon theophrasti
Outline: (§2)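 Test chemicals in a non-phytotoxic solvent mixture with surfactant were sprayed preemergence onto planted seeds and postemergence onto plants 2 to 18 cm tall (1- to 4-leaf stage). After twelve to sixteen days in a greenhouse, injury was visually rated against untreated controls from 0 (no effect) to 10 (complete control).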

soybean = assay: Test B pre/postemergence soybean; type: in vivo, Glycine max
Outline: as §2

blackgrass = assay: Test B pre/postemergence blackgrass; type: in vivo, Alopecurus myosuroides
Outline: as §2

corn = assay: Test B pre/postemergence corn; type: in vivo, Zea mays
Outline: as §2

sugar beet = assay: Test B pre/postemergence sugar beet; type: in vivo, Beta vulgaris
Outline: as §2

morningglory = assay: Test B pre/postemergence morningglory; type: in vivo, Ipomoea hederacea
Outline: as §2

smallflower flatsedge = assay: Test B flood test smallflower flatsedge; type: in vivo, Cyperus difformis
Outline: as §1

rape = assay: Test B pre/postemergence rape; type: in vivo, Brassica napus
Outline: as §2

surinam grass = assay: Test B pre/postemergence surinam grass; type: in vivo, Brachiaria decumbens
Outline: as §2

giant foxtail = assay: Test B pre/postemergence giant foxtail; type: in vivo, Setaria faberii
Outline: as §2

bamyardgrass = assay: Test B flood test barnyardgrass; type: in vivo, Echinochloa crus-galli
Outline: as §1

bedstraw = assay: Test B pre/postemergence bedstraw; type: in vivo, Galium aparine
Outline: as §2

pigweed = assay: Test B pre/postemergence pigweed; type: in vivo, Amaranthus retroflexus
Outline: as §2

purple nutsedge = assay: Test B pre/postemergence purple nutsedge; type: in vivo, Cyperus rotundus
Outline: as §2

[1] = Rate 62 g/ha, headed Pre-emergence (flood test species), scale 0 to 10 (0 no effect, 10 complete control)
[2] = Rate 125 g/ha, Pre-emergence, flood test species, scale 0 to 10 where 0 is no effect and 10 is complete control
[3] = Rate 250 g/ha, Pre-emergence, flood-test species, scale 0 to 10, 0 is no effect, 10 is complete control
[4] = Rate 500 g/ha, Pre-emergence, flood test species, scale 0 to 10 (0 no effect, 10 complete control)
[5] = Postemergence, Rate 125 g/ha, scale 0 to 10, 0 is no effect, 10 is complete control
[6] = Preemergence, Rate 62 g/ha, scale of 0 to 10 where 0 is no effect and 10 is complete control
[7] = Preemergence, Rate 250 g/ha, scale of 0 to 10 where 0 is no effect and 10 is complete control
[8] = Preemergence, Rate 500 g/ha, scale of 0 to 10 where 0 is no effect and 10 is complete control
[9] = Rate 62 g/ha, Postemergence, scale 0 to 10 (0 no effect, 10 complete control)
[10] = Rate 500 g/ha, Postemergence, scale 0 to 10, 0 no effect, 10 complete control
[11] = Rate 250 g/ha, Postemergence, scale of 0 to 10 where 0 is no effect and 10 is complete control

Compound: Cc1c(-n2c(=O)on(C(=O)N(c3ccc(F)cc3F)C(C)C)c2=O)ccc2ccccc12 [Compound 337]
- Ducksalad plant response rating (duck salad; [1]): 0
- Ducksalad plant response rating (duck salad; [2]): 0
- Ducksalad plant response rating (duck salad; [3]): 0
- Ducksalad plant response rating (duck salad; [4]): 0
- Rice plant response rating (rice; [1]): 0
- Rice plant response rating (rice; [2]): 0
- Rice plant response rating (rice; [3]): 0
- Rice plant response rating (rice; [4]): 0
- Plant response rating, Velvetleaf (velvetleaf; [5]): 0
- Velvetleaf plant response rating (velvetleaf; [6]): 0
- Velvetleaf plant response rating (0 to 10 scale) (velvetleaf; Preemergence, Rate 125 g/ha): 0
- Velvetleaf plant response rating (velvetleaf; [7]): 0
- Velvetleaf plant response rating (velvetleaf; [8]): 0
- Velvetleaf plant response rating (velvetleaf; [9]): 0
- Plant response rating, Velvetleaf (velvetleaf; [10]): 0
- Plant response rating, Soybean (soybean; [5]): 1
- Soybean plant response rating (soybean; [6]): 0
- Soybean plant response rating (0 to 10 scale) (soybean; Preemergence, Rate 125 g/ha): 0
- Soybean plant response rating (soybean; [7]): 0
- Soybean plant response rating (soybean; [8]): 0
- Soybean plant response rating (soybean; [9]): 1
- Plant response rating, Soybean (soybean; [10]): 2
- Plant response rating, Blackgrass (blackgrass; [5]): 0
- Blackgrass plant response rating (blackgrass; [6]): 0
- Blackgrass plant response rating (0 to 10 scale) (blackgrass; Preemergence, Rate 125 g/ha): 0
- Blackgrass plant response rating (blackgrass; [7]): 2
- Blackgrass plant response rating (blackgrass; [8]): 3
- Blackgrass plant response rating (blackgrass; [9]): 0
- Plant response rating, Blackgrass (blackgrass; [11]): 0
- Plant response rating, Blackgrass (blackgrass; [10]): 0
- Plant response rating, Corn (corn; [5]): 0
- Corn plant response rating (corn; [6]): 0
- Corn plant response rating (0 to 10 scale) (corn; Preemergence, Rate 125 g/ha): 0
- Corn plant response rating (corn; [7]): 0
- Corn plant response rating (corn; [8]): 0
- Corn plant response rating (corn; [9]): 0
- Plant response rating, Corn (corn; [10]): 0
- Plant response rating, Sugarbeets (sugar beet; [5]): 0
- Sugarbeets plant response rating (sugar beet; [6]): 0
- Sugarbeets plant response rating (0 to 10 scale) (sugar beet; Preemergence, Rate 125 g/ha): 0
- Sugarbeets plant response rating (sugar beet; [7]): 0
- Sugarbeets plant response rating (sugar beet; [8]): 0
- Sugarbeets plant response rating (sugar beet; [9]): 0
- Plant response rating, Sugarbeets (sugar beet; [10]): 0
- Plant response rating, Morningglory (morningglory; [5]): 0
- Morningglory plant response rating (morningglory; [6]): 0
- Morningglory plant response rating (0 to 10 scale) (morningglory; Preemergence, Rate 125 g/ha): 0
- Morningglory plant response rating (morningglory; [7]): 0
- Morningglory plant response rating (morningglory; [8]): 0
- Morningglory plant response rating (morningglory; [9]): 0
- Plant response rating, Morningglory (morningglory; [10]): 0
- S. Flatsedge plant response rating (smallflower flatsedge; [1]): 0
- S. Flatsedge plant response rating (smallflower flatsedge; [2]): 0
- S. Flatsedge plant response rating (smallflower flatsedge; [3]): 0
- S. Flatsedge plant response rating (smallflower flatsedge; [4]): 0
- Plant response rating, Rape (rape; [5]): 0
- Rape plant response rating (rape; [6]): 0
- Rape plant response rating (0 to 10 scale) (rape; Preemergence, Rate 125 g/ha): 0
- Rape plant response rating (rape; [7]): 0
- Rape plant response rating (rape; [8]): 0
- Rape plant response rating (rape; [9]): 0
- Plant response rating, Rape (rape; [10]): 0
- Plant response rating, B. signalgrass (surinam grass; [5]): 0
- B. signalgrass plant response rating (surinam grass; [6]): 0
- B. signalgrass plant response rating (0 to 10 scale, 0 is no effect, 10 is complete control) (surinam grass; Preemergence, Rate 125 g/ha): 0
- B. signalgrass plant response rating (surinam grass; [7]): 0
- B. signalgrass plant response rating (surinam grass; [8]): 0
- B. signalgrass plant response rating (surinam grass; [9]): 0
- Plant response rating, B. signalgrass (surinam grass; [11]): 0
- Plant response rating, B. signalgrass (surinam grass; [10]): 0
- Plant response rating, Giant foxtail (giant foxtail; [5]): 0
- Giant foxtail plant response rating (giant foxtail; [6]): 0
- Giant foxtail plant response rating (0 to 10 scale) (giant foxtail; Preemergence, Rate 125 g/ha): 0
- Giant foxtail plant response rating (giant foxtail; [7]): 2
- Giant foxtail plant response rating (giant foxtail; [8]): 9
- Giant foxtail plant response rating (giant foxtail; [9]): 0
- Plant response rating, Giant foxtail (giant foxtail; [10]): 0
- Barnyardgrass plant response rating (bamyardgrass; [1]): 0
- Barnyardgrass plant response rating (bamyardgrass; [2]): 0
- Barnyardgrass plant response rating (bamyardgrass; [3]): 0
- Barnyardgrass plant response rating (bamyardgrass; [4]): 5
- Plant response rating, Bedstraw (bedstraw; [5]): 1
- Bedstraw plant response rating (bedstraw; [6]): 0
- Bedstraw plant response rating (0 to 10 scale) (bedstraw; Preemergence, Rate 125 g/ha): 0
- Bedstraw plant response rating (bedstraw; [7]): 0
- Bedstraw plant response rating (bedstraw; [8]): 0
- Bedstraw plant response rating (bedstraw; [9]): 0
- Plant response rating, Bedstraw (bedstraw; [11]): 2
- Plant response rating, Bedstraw (bedstraw; [10]): 4
- Plant response rating, Redroot pigweed (pigweed; [5]): 0
- Redroot pigweed plant response rating (pigweed; [6]): 0
- Redroot pigweed plant response rating (0 to 10 scale) (pigweed; Preemergence, Rate 125 g/ha): 0
- Redroot pigweed plant response rating (pigweed; [7]): 0
- Redroot pigweed plant response rating (pigweed; [8]): 0
- Redroot pigweed plant response rating (pigweed; [9]): 0
- Plant response rating, Redroot pigweed (pigweed; [10]): 0
- Plant response rating, Nutsedge (purple nutsedge; [5]): 0
- Nutsedge plant response rating (purple nutsedge; [6]): 0
- Nutsedge plant response rating (0 to 10 scale) (purple nutsedge; Preemergence, Rate 125 g/ha): 0
- Nutsedge plant response rating (purple nutsedge; [7]): 0
- Nutsedge plant response rating (purple nutsedge; [8]): 0
- Nutsedge plant response rating (purple nutsedge; [9]): 0
- Plant response rating, Nutsedge (purple nutsedge; [10]): 0

Reference: patent US6737383B1, “Herbicidal oxadiazolidines” (priority 1999, dated 2004)
